Assay results taken from patent US20080050819A1, “Constructs for Marker Excision Based on Dual-Function Selection Marker” (BASF Plant Science GmbH, priority 2004, published 2008).
“Also recorded” adds a separate entry of the source.

Assays:
[1] = tested on: DAAO transgenic seedlings; test: Spray application of D-amino acids on soil-grown DAAO transgenic seedlings; assay type: in vivo, Arabidopsis thaliana; conditions: 50 mM spray
Procedure: (§1) FIG. 5: Selection of primary transformants with the DAAO marker. • (a-c) DAAO T1 seedlings on media containing 3 mM D-alanine (a), 3 mM D-serine (b) and 50 μg ml-1 kanamycin (c). Seeds were surface-sterilized and sown on half-strength MS plates with 0.5% (wt/vol) sucrose, 0.8% (wt/vol) agar and the respective selective compound, then grown for 5 d after germination under 16 h photoperiods at 24° C. • (d) DAAO transgenic plants grown on soil photographed after selection by spraying with (1) D-alanine and (2) D-serine, and wild-type plants sprayed with (3) D-alanine and (4) D-serine. Eight seeds per plot and treatment were sown on soil, and grown for 7 d after germination before applying the selective treatment, which consisted of spraying with aqueous 50 mM solutions of D-alanine or D-serine with 0.05% Tween 80 on three consecutive days.
(§2) FIG.: 11 D-amino acids are applicable by spraying procedure DAAO transgenic plants grown on soil photographed after selection by spraying with (1) D-alanine and (2) D-serine, and wild-type plants sprayed with (3) D-alanine and (4) D-serine. Eight seeds per plot and treatment were sown on soil, and grown for 7 d after germination before applying the selective treatment, which consisted of spraying with aqueous 50 mM solutions of D-alanine or D-serine with 0.05% Tween 80 on three consecutive days.

[2] = tested on: wild-type Arabidopsis thaliana; test: Growth of wild-type A. thaliana on D-amino acid media; assay type: in vivo; conditions: 30 mM, FIG. 2
[3] = tested on: dao1 transgenic A. thaliana; test: Growth of dao1 (DAAO) transgenic A. thaliana on D-amino acid media; assay type: in vivo, Arabidopsis thaliana
Procedure: (§3) FIG. 4 D-amino acid dose responses of dao1 transgenic and wild-type A. thaliana. • (a-d) Growth of dao1 transgenic line 3:7 (white), 10:7 (light gray), 13:4 (gray) and wild-type (black) plants, in fresh weight per plant, on media containing various concentrations of D-serine, D-alanine, D-isoleucine and D-valine in half-strength MS with 0.5% (wt/vol) sucrose and 0.8% (wt/vol) agar. Different concentration ranges were used for different D-amino acids. The plants were grown for 10 d after germination under 16 h photoperiods at 24° C.; n=10±s.e.m., except for plants grown on D-isoleucine, where smaller Petri dishes were used, (n=6±s.e.m.). • (e-l) Photographs of dao1 transgenic line 10:7 (e-h) and wild-type plants (i-l), grown for 10 d on the highest concentrations of the D-amino acid shown in the respective graphs above. All pictures have the same magnification. FW, fresh weight.
Therefore, plants containing the construct were tested as described above on two sets of media, one containing D-isoleucine and the other containing D-valine at various concentrations, to assess whether DAAO could also be used as a counter-selection marker. Unambiguous counter-selection selection was achieved when seeds were sown on either D-isoleucine or D-valine at concentrations greater than 10 mM (FIG. 4 c,d).

[4] = tested on: wild-type Arabidopsis thaliana; test: Growth of wild-type A. thaliana on D-amino acid media; assay type: in vivo; conditions: for effect on growth of wild-type plantlets: FIG. 3, half-concentrated MS medium supplemented at 3 mM (Panel A) or 30 mM (Panel B); for effect on wild-type plants: concentration not stated / various concentrations
Procedure: FIG. 3 Effect of various D-amino acids on plant growth. • Wild type Arabidopsis thaliana plantlets were grown on half-concentrated Murashige-Skoog medium (0.5% (wt/vol) sucrose, 0.8% (wt/vol) agar) supplemented with the indicated D-amino acid at either 3 mM (Panel A) or 30 mM (Panel B).
as §3

wild-type seedlings = test: Spray application of D-amino acids on soil-grown wild-type seedlings; assay type: in vivo, Arabidopsis thaliana; conditions: one-week-old seedlings, 50 mM, sprayed on three consecutive days
Procedure: as §1, §2

DAAO = molecular target: T1, DAAO (Rhodotorula toruloides, UniProt P80324); test: DAAO incubation of cell-free plant extracts, keto acid production by HPLC; assay type: biochemical, Rhodotorula gracilis; conditions: cell-free extracts from dao1 transgenic line 10:7
T1 construct: expressed in transfected cells; host or cells: Arabidopsis thaliana (Col-0) dao1 transgenic line 10:7, stably transformed with pPCV702:dao1 (CaMV 35S); crude soluble protein extract
T1 sequence (P80324 25-368): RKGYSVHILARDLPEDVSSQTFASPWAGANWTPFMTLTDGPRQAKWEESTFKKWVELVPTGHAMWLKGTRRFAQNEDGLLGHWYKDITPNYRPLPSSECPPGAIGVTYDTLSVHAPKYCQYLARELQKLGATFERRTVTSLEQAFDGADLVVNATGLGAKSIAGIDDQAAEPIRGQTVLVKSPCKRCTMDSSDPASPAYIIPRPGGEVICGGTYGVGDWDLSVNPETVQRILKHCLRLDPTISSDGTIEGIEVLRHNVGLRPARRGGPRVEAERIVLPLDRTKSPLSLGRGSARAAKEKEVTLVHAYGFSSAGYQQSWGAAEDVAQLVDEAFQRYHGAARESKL
Procedure: Soluble proteins were extracted by shaking 0.1 g samples of plant material that had been finely pulverized in a 1.5 ml Eppendorf tube in 1 ml of 0.1 M potassium phosphate buffer, pH 8. DAAO activity was then assayed as follows. Reaction mixtures were pre-pared containing 2,120 μl of 0.1 M potassium phosphate buffer, pH 8, 80 μl of crude protein extract and 100 μl of 0.3 M D-alanine. The samples were incubated for 2 h at 30° C. The enzyme activity was then assessed, by measuring the increase in absorbance at 220 nm (E=1.090 M^−1 cm^−1) associated with the conversion of D-alanine to pyruvate, after transferring the test tubes to boiling water for 10 min to stop the reaction. In control reactions, D-alanine was added immediately before boiling. One unit of DAAO activity is defined as the turnover of one micromole of substrate per minute, and activity was expressed per gram plant biomass (fresh weight). The breakdown of D-isoleucine and D-valine in DAAO incubations, and the associated production of 3-methyl-2-oxopentanoate and 3-methyl-2-oxobutanoate, were analyzed by high-performance liquid chromatography. In other respects the reactions were carried out as described above.

wildtype A. thaliana = test: Attempted rescue of wild-type A. thaliana grown on lethal D-serine with potential inhibitors of D-serine toxicity; assay type: in vivo, Arabidopsis thaliana; conditions: lethal concentrations of D-serine, added separately and in combinations, 0.001-50 μg ml-1
Procedure: (§4) To evaluate the toxic action of 3-methyl-2-oxopentanoate and 3-methyl-2-oxobutanoate, wild-type plants were sown on two sets of half strength MS agar plates, each containing one of the compounds in a range of concentrations (0.01-10 mM). […] For 3-methyl-2-oxobutanoate, 5 mM was required for complete inhibition. Further, several attempts were made to probe the nature of D-serine's toxicity.

DAAO transgenic plants = test: Germination of DAAO transgenic plants on D-Asn (cytosolic and peroxisomal DAAO); assay type: in vivo; conditions: 30 mM; cytosolic and peroxisomal DAAO constructs vs wild-type
[5] = tested on: wild-type plants (A. thaliana); test: Toxicity of keto acids to wild-type plants on half strength MS agar plates; assay type: in vivo, Arabidopsis thaliana; conditions: for effect on growth of A. thaliana: in vivo
Procedure: as §4

[6] = tested on: T1 seeds of transgenic Arabidopsis plants; test: Selection of DAAO (35S:dao1 / pNos:nptII) T1 seeds on selective media; assay type: in vivo, Arabidopsis thaliana; conditions: FIG. 4a
Excerpt: Flowering A. thaliana plants were then transformed by the floral dip method (Clough S J & Bent A F (1998) Plant J. 16, 735-743 (1998) with the transgenic Agrobacterium tumefaciens strain carrying the vector described above by dipping for 10-20 seconds into the Agrobacterium solution. Afterwards the plants were kept in the greenhouse until seeds could be harvested. Transgenic seeds were selected by plating surface sterilized seeds on growth medium A (4.4 g/L MS salts [Sigma-Aldrich], 0.5 g/L MES [Duchefa]; 8 g/L Plant Agar [Duchefa]) supplemented with 50 mg/L kanamycin for plants carrying the nptII resistance marker, or 0.3 to 30 mM D-amino acids (as described below) for plants comprising the dual-function marker of the invention. Surviving plants were transferred to soil and grown in the greenhouse.
T1 seeds of transgenic Arabidopsis plants were surface-sterilized and sown in Petri plates that were sealed with gas-permeable tape. The growth medium was half strength MS19 with 0.5% (wt/vol) sucrose and 0.8% (wt/vol) agar, plus 3 mM D-alanine, 3 mM D-serine or 50 μg/ml kanamycin as the selective agent. […] To evaluate the selection efficiency on different substrates, 2,074, 1,914 and 1,810 T1 seeds were sown on D-alanine-, D-serine- and kanamycin-selective plates, respectively, and the number of surviving seedlings was counted (44, 32 and 43, respectively). […]

[7] = tested on: poplar, tobacco, barley, maize, tomato and spruce; test: Susceptibility of other plant species to D-serine; assay type: in vivo; conditions: concentrations similar to those toxic for A. thaliana; FIG. 6+7
[8] = concentration not stated / various concentrations
[9] = wild-type plants, half strength MS agar, tested range 0.01-10 mM

C[C@@H](N)C(=O)O [D-alanine] was tested, and the “response of transgenic seedlings to foliar application” value [1] was “resistant”, the “effect on wild-type plantlets” value [2] was “toxic effect” and the “effect on transgenic (DAAO) plants” value ([3]; 30 mM) was “no severe damage; also recorded: no negative effect”. For the same molecule, the “effect on transgenic (DAAO) plants” value [3, 8] was “detoxify; also recorded: developed normally”, the “effect on growth of wild-type plantlets” value [4] was “severe phytotoxic effects” and the “effect on wild-type plants” value [4] was “inhibited even at quite low concentrations; also recorded: inhibited growth”. The “effect of sprayed application on wild-type seedlings” value (wild-type seedlings) was “effectively killed”.
For CC[C@@H](C)[C@@H](N)C(=O)O [D-isoleucine], the “effect on wild-type plantlets” value [2] was “no severe damage”, the “effect on transgenic (DAAO) plants” value ([3]; 30 mM) was “toxic effect” and the “effect on transgenic (DAAO) plants” value [3, 8] was “strong negative influence; also recorded: inhibit growth; also recorded: effectively killed”. The “effect on growth of wild-type plantlets” value [4] was “no significant effects”, the “effect on wild-type plants” value [4] was “not toxic; also recorded: minor effects; also recorded: not the wild-type plants; also recorded: no sign of toxicity” and the “increase in production of the keto acid (3-methyl-2-oxopentanoate / 3-methyl-2-oxobutanoate) compared to extracts of wild-type plants” value (DAAO) was 15 fold.
With C[C@@H](O)[C@H](N)C(=O)O [threonine] the “rescue (mitigation) of D-serine toxicity” value (wildtype A. thaliana) was “without any success”.
In the case of N[C@@H](CO)C(=O)O [L-serine], the “rescue (mitigation) of D-serine toxicity” value (wildtype A. thaliana) is reported as “without any success”.
For NCCC(=O)O [β-alanine], the “rescue (mitigation) of D-serine toxicity” value (wildtype A. thaliana) was “without any success” and the “rescue (mitigation) of D-serine toxicity” value (wildtype A. thaliana; listed as â-alanine) was “could not be mitigated”.
NC(=O)C[C@@H](N)C(=O)O [D-Asn, D-asparagine] was tested, and the “inhibition of germination of DAAO transgenic plants” value (DAAO transgenic plants) was “inhibited significantly more than the wild-type”.
CC[C@H](C)[C@H](N)C(=O)O [L-isoleucine] was tested, and the “effect on wild-type plants” value [4] was “negative effects”.
In the case of CC(C)[C@@H](N)C(=O)O [D-valine], the “effect on transgenic (DAAO) plants” value [3, 8] is reported as “strong negative influence; also recorded: inhibit growth”, the “effect on wild-type plants” value [4] is reported as “not toxic; also recorded: minor effects; also recorded: not the wild-type plants; also recorded: moderately negative effect” and the “increase in production of the keto acid (3-methyl-2-oxopentanoate / 3-methyl-2-oxobutanoate) compared to extracts of wild-type plants” value (DAAO) is reported as 7 fold.
CC(C)C(=O)C(=O)O [3-methyl-2-oxobutanoate] was tested, and the “effect on growth of A. thaliana” value [5] was “impaired growth” and the “concentration giving total (complete) growth inhibition” value [5, 9] was 5 mM.
N[C@H](CO)C(=O)O [D-serine] was tested, and the “concentration at which efficient selection was achieved” value [6] was “lower than 1 mM”, the “response of transgenic seedlings to foliar application” value [1] was “resistant” and the “effect on transgenic (DAAO) plants” value ([3]; 3 mM) was “slightly inhibited the growth”. For the same molecule, the “effect on transgenic (DAAO) plants” value ([3]; 30 mM) was “significant growth inhibition”, the “effect on transgenic (DAAO) plants” value [3, 8] was “detoxify; also recorded: developed normally” and the “toxicity to other plant species” value [7] was “toxic effects; also recorded: susceptible”. The “effect on growth of wild-type plantlets” value [4] was “severe phytotoxic effects”, the “effect on wild-type plants” value [4] was “inhibited even at quite low concentrations; also recorded: inhibited growth” and the “effect of sprayed application on wild-type seedlings” value (wild-type seedlings) was “effectively killed”.
calcium-pantothenate was tested, and the “rescue (mitigation) of D-serine toxicity” value (wildtype A. thaliana) was “without any success”.
CC(C)C[C@H](N)C(=O)O [leucine] was tested, and the “rescue (mitigation) of D-serine toxicity” value (wildtype A. thaliana) was “without any success”.
In the case of CC(C)(CO)[C@@H](O)C(=O)NCCC(=O)O [pantothenic acid], the “rescue (mitigation) of D-serine toxicity” value (wildtype A. thaliana) is reported as “could not be mitigated”.
CCC(C)C(=O)C(=O)O (stereo not drawn) [3-methyl-2-oxopentanoate] was tested, and the “effect on growth of A. thaliana” value [5] was “impaired growth”, the “concentration at which plants were slightly affected” value [5, 9] was 0.1 mM and the “concentration giving total (complete) growth inhibition” value [5, 9] was 1 mM.
